Values quoted from earlier work, collected in paper doi:10.1101/2025.09.30.679517v1 (bioRxiv, 2025).

Conditions: human, in vivo, po

**Q.** Which primary endpoints does the source give for COc1ccc2c(c1)[C@]13CCCC[C@@H]1[C@H](C2)N(C)CC3 [dextromethorphan] here?
**A.** reached all primary endpoints

**Q.** What about the tolerability of the same molecule?
**A.** well-tolerated by patients
